Experimental data reported in the supplement of paper PMC10307832.

Tests used:
Assay in all cases: relative viability (nuclei count vs DMSO), 5 days (fraction); higher = more cells survive
Ruxolitinib + Decitabine = compound: N#CC[C@H](C1CCCC1)n1cc(-c2ncnc3[nH]ccc23)cn1 [Ruxolitinib] + Nc1ncn([C@H]2C[C@H](O)[C@@H](CO)O2)c(=O)n1 [Decitabine] (partner 2 µM)
Outline: (§1)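 Relative viability is defined as nuclei in treated wells over nuclei in vehicle wells. Duplicate plates were run and medians reported. Lung cancer cell lines in 1536-well plates were dosed by pin tool one day after seeding, with one drug or with a fixed anchor-drug dose plus five library-drug doses (not always all listed) in √10 steps, and nuclei were counted after 5 days.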

Vismodegib + Pemetrexed = compound: CS(=O)(=O)c1ccc(C(=O)Nc2ccc(Cl)c(-c3ccccn3)c2)c(Cl)c1 [Vismodegib] + Nc1nc2[nH]cc(CCc3ccc(C(=O)N[C@@H](CCC(=O)O)C(=O)O)cc3)c2c(=O)[nH]1 [Pemetrexed] (partner 0.2 µM)
Outline: as §1

VE-821 + Foretinib = compound: CS(=O)(=O)c1ccc(-c2cnc(N)c(C(=O)Nc3ccccc3)n2)cc1 [VE-821] + COc1cc2c(Oc3ccc(NC(=O)C4(C(=O)Nc5ccc(F)cc5)CC4)cc3F)ccnc2cc1OCCCN1CCOCC1 [Foretinib] (partner 0.25 µM)
Outline: as §1

Ruxolitinib + Tozasertib = compound: N#CC[C@H](C1CCCC1)n1cc(-c2ncnc3[nH]ccc23)cn1 [Ruxolitinib] + Cc1cc(Nc2cc(N3CCN(C)CC3)nc(Sc3ccc(NC(=O)C4CC4)cc3)n2)n[nH]1 [Tozasertib] (partner 0.1 µM)
Outline: as §1

Row | Cell Line | relative viability (Ruxolitinib + Decitabine; first compound 0.253 µM) | relative viability (Ruxolitinib + Decitabine; first compound 0.8 µM) | relative viability (Ruxolitinib + Decitabine; first compound 2.53 µM) | relative viability (Ruxolitinib + Decitabine; first compound 8 µM) | relative viability (Vismodegib + Pemetrexed; first compound 0.08 µM) | relative viability (Vismodegib + Pemetrexed; first compound 0.253 µM) | relative viability (Vismodegib + Pemetrexed; first compound 0.8 µM) | relative viability (Vismodegib + Pemetrexed; first compound 2.53 µM) | relative viability (Vismodegib + Pemetrexed; first compound 8 µM) | relative viability (VE-821 + Foretinib; first compound 0.08 µM) | relative viability (VE-821 + Foretinib; first compound 0.253 µM) | relative viability (VE-821 + Foretinib; first compound 0.8 µM) | relative viability (VE-821 + Foretinib; first compound 2.53 µM) | relative viability (VE-821 + Foretinib; first compound 8 µM) | relative viability (Ruxolitinib + Tozasertib; first compound 0.08 µM) | relative viability (Ruxolitinib + Tozasertib; first compound 0.253 µM) | relative viability (Ruxolitinib + Tozasertib; first compound 0.8 µM) | relative viability (Ruxolitinib + Tozasertib; first compound 2.53 µM) | relative viability (Ruxolitinib + Tozasertib; first compound 8 µM) | relative viability (Ruxolitinib + Decitabine; first compound 0.08 µM)
1 | COR-L 105 | 0.57 | 0.656 | 0.659 | 0.58 | 1.03 | 1.16 | 1.08 | 1.03 | 1.16 | 1.06 | 1.15 | 0.937 | 0.731 | 0.759 | 0.383 | 0.314 | 0.423 | 0.475 | 0.35 | 
2 | NCI-H2342 | 0.665 | 0.777 | 0.783 | 0.667 | 0.769 | 0.821 | 0.81 | 0.611 | 0.719 | 1.25 | 0.917 | 0.951 | 1.1 | 1 | 0.529 | 0.556 | 0.486 | 0.479 | 0.532 | 0.706
3 | SW 900 | 0.495 | 0.475 | 0.445 | 0.41 | 0.496 | 0.472 | 0.495 |  | 0.496 | 0.848 | 0.997 | 0.836 | 0.916 | 0.681 | 0.581 | 0.649 | 0.499 | 0.534 | 0.625 | 0.426
4 | LOU-NH91 | 0.813 | 0.829 | 0.782 | 0.798 | 0.349 | 0.385 | 0.42 | 0.416 | 0.414 | 0.982 | 0.946 | 0.86 | 0.986 | 0.928 |  | 0.627 | 0.744 | 0.65 | 0.632 | 0.684
5 | HCC-15 | 0.553 | 0.7 | 0.55 | 0.48 | 0.215 | 0.215 | 0.265 | 0.219 | 0.228 | 1.16 | 1.1 | 1.1 | 1.27 | 0.98 | 0.406 | 0.434 | 0.519 | 0.481 | 0.421 | 0.677
6 | A-427 | 0.558 | 0.579 | 0.605 | 0.58 | 1.08 | 0.939 | 0.912 | 1.01 | 0.902 | 1.34 | 0.97 | 0.991 | 1.05 | 0.561 | 0.232 | 0.201 | 0.237 | 0.184 | 0.179 | 0.566
7 | SW 1573 | 0.512 | 0.667 | 0.377 | 0.518 | 0.79 | 0.894 | 0.764 | 0.855 | 0.865 | 0.96 | 0.853 | 0.861 | 0.815 | 0.87 | 0.209 | 0.182 | 0.167 | 0.183 | 0.16 | 0.547
8 | NCI-H2087 |  | 0.35 | 0.189 | 0.286 | 0.692 | 0.657 | 0.651 | 0.643 | 0.657 | 1.12 | 0.982 | 1.22 | 1.33 | 1 | 0.256 | 0.229 | 0.24 | 0.276 | 0.299 | 0.316
